According to publication PMC9306920 (Clinical Pharmacology in Drug Development, 2022):

What was measured:
[1] = test system: healthy subjects; assay: Thorough QT study: cardiodynamic ECG assessment; assay type: in vivo, human
[2] = Plasma pharmacokinetics in thorough QT study; assay type: in vivo, human; conditions: moxifloxacin 400 mg single oral dose

COc1c(N2C[C@@H]3CCCN[C@@H]3C2)c(F)cc2c(=O)c(C(=O)O)cn(C3CC3)c12 [Moxifloxacin]
Subjects with QTcF of >450 milliseconds or ΔQTcF of >30 milliseconds ([1]; any treatment, any time point): No subject | U-wave presence ([1]; during the study): No U‐wave observations | Largest LS mean ΔQRS ([1]; moxifloxacin 400 mg, 0.5, 1, and […] after dosing): 0.2 milliseconds | Largest LS mean ΔΔQTcF ([1]; moxifloxacin 400 mg, 2 hours after dosing): 12.9 milliseconds | Peak LS mean ΔQTcF ([1]; moxifloxacin 400 mg, 3 hours after dosing): 9.2 milliseconds | Largest LS mean ΔHR ([1]; moxifloxacin 400 mg, 6 hours after dosing): 8.7 bpm | Frequencies of flat, notched, and biphasic T-wave morphologies ([1]; versus placebo): lower than or the same as for placebo | Time at which plasma concentration reached its maximal value [2]: 2 h | Time plasma concentration remained detectable [2]: 72 h
